Values after ≈ are worked out from the molar mass of the structure shown.

Test [1] concerns the target T1, 1-deoxy-D-xylulose 5-phosphate reductoisomerase (Escherichia coli K-12, UniProt P45568).
T1 sequence (P45568 whole entry): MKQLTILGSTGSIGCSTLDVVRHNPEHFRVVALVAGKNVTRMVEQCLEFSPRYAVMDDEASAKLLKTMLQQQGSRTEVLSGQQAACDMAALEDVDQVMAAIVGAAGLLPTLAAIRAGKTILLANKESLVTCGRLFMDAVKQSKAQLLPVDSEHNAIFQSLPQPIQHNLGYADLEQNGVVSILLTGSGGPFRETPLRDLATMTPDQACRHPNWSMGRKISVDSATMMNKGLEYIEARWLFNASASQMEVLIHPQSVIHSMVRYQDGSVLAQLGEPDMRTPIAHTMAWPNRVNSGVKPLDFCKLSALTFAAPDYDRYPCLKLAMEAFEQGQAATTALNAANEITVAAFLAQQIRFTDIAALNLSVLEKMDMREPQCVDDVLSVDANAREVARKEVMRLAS
As to the kind of experiment: Inhibition of recombinant Escherichia coli DXR extracted from Escherichia coli M15 using DXP as substrate by NADPH consumption based photometric assay.

In test [2] the target is T2, 1-deoxy-D-xylulose 5-phosphate reductoisomerase, apicoplastic (Plasmodium falciparum (isolate 3D7), UniProt Q8IKG4).
T2 sequence (Q8IKG4 whole entry): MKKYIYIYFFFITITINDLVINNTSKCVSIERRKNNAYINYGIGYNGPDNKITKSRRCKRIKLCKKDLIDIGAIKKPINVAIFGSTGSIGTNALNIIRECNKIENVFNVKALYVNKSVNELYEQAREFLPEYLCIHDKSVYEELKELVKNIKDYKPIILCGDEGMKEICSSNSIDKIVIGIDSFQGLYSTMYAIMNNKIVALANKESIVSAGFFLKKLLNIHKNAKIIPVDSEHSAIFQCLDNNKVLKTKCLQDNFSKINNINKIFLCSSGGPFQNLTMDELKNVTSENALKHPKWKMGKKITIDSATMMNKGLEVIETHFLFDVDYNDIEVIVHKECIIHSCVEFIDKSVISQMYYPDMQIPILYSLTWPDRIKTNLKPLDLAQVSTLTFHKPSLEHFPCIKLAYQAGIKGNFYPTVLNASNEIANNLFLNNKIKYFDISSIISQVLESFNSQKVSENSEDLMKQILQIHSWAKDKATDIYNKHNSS
As to the kind of experiment: Inhibition of Plasmodium falciparum DXR extracted from Escherichia coli using DXP as substrate by NADPH consumption based photometric assay.

Test [3] relates to Escherichia coli. As to the kind of experiment: Antibacterial activity against Escherichia coli ATCC 25922 […] by CLSI based broth microdilution assay. The test is classed as functional. (Broth dilution looks for growth in wells or tubes with falling amounts of substance.)
The test system of test [4] is Plasmodium falciparum. The test is described as follows: Antiparasitic activity against CQ-sensitive Plasmodium falciparum 3D7 at asexual stage infected in O Rh+ erythrocytes by ELISA. The test is classed as functional, organism-based. Conditions: 3D7, Erythrocyte. (In an ELISA, binding on a coated surface is turned into a signal by an enzyme label.)
For test [5], the target named is T3, 1-deoxy-D-xylulose 5-phosphate reductoisomerase (Mycobacterium tuberculosis, UniProt P9WNS1).
T3 sequence (P9WNS1 whole entry): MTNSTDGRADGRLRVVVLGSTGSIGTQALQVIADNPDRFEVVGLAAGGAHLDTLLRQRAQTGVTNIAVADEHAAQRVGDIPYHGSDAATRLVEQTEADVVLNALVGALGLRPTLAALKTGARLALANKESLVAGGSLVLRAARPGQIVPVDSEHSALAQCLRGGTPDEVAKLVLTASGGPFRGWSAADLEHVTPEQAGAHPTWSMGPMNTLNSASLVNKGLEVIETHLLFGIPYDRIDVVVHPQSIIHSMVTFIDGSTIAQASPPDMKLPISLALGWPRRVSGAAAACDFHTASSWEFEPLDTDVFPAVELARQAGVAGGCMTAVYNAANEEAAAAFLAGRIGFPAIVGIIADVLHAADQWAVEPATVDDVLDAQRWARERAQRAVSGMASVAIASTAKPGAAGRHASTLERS
As to the kind of experiment: Inhibition of recombinant Mycobacterium tuberculosis DXR extracted from Escherichia coli M15 using DXP as substrate by NADPH consumption based photometric assay.

A short description of test [6]: Selectivity ratio of IC50 for antiparasitic activity against multidrug-resistant Plasmodium falciparum Dd2 at asexual stage infected in O Rh+ erythrocytes to IC50 for inhibition of Plasmodium falciparum DXR extracted from Escherichia coli.
In test [7] the test system is Mycobacterium tuberculosis. The test is described as follows: Antibacterial activity against wild-type Mycobacterium tuberculosis H37Rv incubated for 5 days by CLSI based broth microdilution assay. The conditions noted are these: 120 h, time 5 day. The test is classed as functional.
The subject of test [8] is Plasmodium falciparum. The test is described as follows: Antiparasitic activity against multidrug-resistant Plasmodium falciparum Dd2 at asexual stage infected in O Rh+ erythrocytes by ELISA method. Conditions: Dd2, Erythrocyte. Format: functional, organism-based.
The nature of test [9]: Selectivity ratio of IC50 for antiparasitic activity against CQ-sensitive Plasmodium falciparum 3D7 at asexual stage infected in O Rh+ erythrocytes to IC50 for inhibition of Plasmodium falciparum DXR extracted from Escherichia coli.
Test [10] concerns Escherichia coli. As to the kind of experiment: Antibacterial activity against Escherichia coli incubated for 20 hrs. The test is classed as functional.

Usually IC50 stands for the point on the concentration scale where inhibition reaches its midpoint. Usually MIC stands for the lowest concentration that inhibits growth of the organism. Higher therefore signals a need for much substance. `CN(O)C(=O)CSC(c1cccc(OCCCCCCN2C(=O)c3ccccc3C2=O)c1)P(=O)(O)O` (racemic): the IC50 in test [1] is 68 nM; in test [2] it was 97 nM; in test [4], over 12000 nM; in test [5] it was 1700 nM; in test [8] it was 9800 nM. Also, the MIC in [3] and in [7] was over 100 µM in each case. Further, the “Ratio IC50” value was 100 in [6] and over 120 in test [9].
In the case of `CN(O)C(=O)CSC(c1ccc(OCCCCCCN2C(=O)c3ccccc3C2=O)cc1)P(=O)(O)O` (racemic), the IC50 is 13 nM in test [1]; 21 nM in [2]; 2600 nM in [4]; 160 nM in test [5]; 1900 nM in test [8]. Besides, the MIC in test [3] and in test [7] was over 100 µM in each case. In addition, the “Ratio IC50” value was determined as 90 in test [6] and 120 in [9].
With `CCCCCCOc1ccc(C(SCC(=O)N(C)O)P(=O)(O)O)cc1` (racemic), the IC50 came to 17 nM in [1]; 48 nM in test [2]; 8000 nM in [4]; 92 nM in [5]; 5800 nM in test [8]. The MIC in test [3] and in test [7] was over 100 µM in each case. The “Ratio IC50” value in test [6] was found to be 120; in test [9], 170.
As to `O=CN(O)CCCP(=O)(O)O` [FOSMIDOMYCIN], it took 6.25 µM (≈ 1.14 µg/mL) to inhibit growth in [10] (MIC).

The values above are taken from ChEMBL document CHEMBL6121034, “Expanding the Chemical Space of Reverse Fosmidomycin Analogs” (ACS Med Chem Lett, 2025).
